Source: patent US12662688B2, “Site-selective deuteration of amino acids through dual protein catalysis” (Wisconsin Alumni Research Foundation, priority 2022, dated 2026)

Columns and labels:
[1] = tested on: DsaD/E complex; test: Preparative-scale Cα/Cβ-deuteration with DsaD and DsaE clarified lysates in D2O; assay type: biochemical, Streptomyces scopuliridis
Description: FIG. 5. ^1H NMR analysis of site-selective deuteration of L-Leu. Reaction conditions: 20 mM L-Leu 2.5% v/v DsaD clarified lysate, 2.5% v/v DsaE clarified lysate (when needed), 50 mM sodium phosphate (pD 8.4), 0.1 mM PLP, D2O (99.9% D).
FIG. 8. Preparative-scale and site-selective deuteration of amino acids. Conditions: 10-20 mM amino acid, 2.5% v/v DsaD clarified lysate, 2.5% v/v DsaE clarified lysate, 50 mM sodium phosphate (pD 8.4), 0.1 mM PLP, D2O (99.9%).
(§1) General procedure for milligram-scale biocatalytic deuteration: A 4-dram scintillation vial was charged with amino acid (10-20 mM final concentration), Na3PO4 buffer pD 8.4 (50 mM final concentration), PLP (100 μM final concentration), DsaD clarified cell lysate (2.5% v/v), DsaE clarified cell lysate (if applicable) (2.5% v/v), and D2O (or dH2O) to the appropriate final volume. The reaction vessel was placed in an incubator at 37° C. for 16 h. Reaction progress was monitored by UPLC-MS. After reaction completion, the reaction mixture was quenched with an equivalent volume of acetone and centrifuged (4,000 rpm, 10 min) to remove denatured protein. Supernatant was transferred to a clean beaker, the decanted supernatant was concentrated to remove acetone by rotary evaporation and loaded onto a preparative reverse-phase C18 column pre-equilibrated with water. Purification was performed via gradient elution on an Isolera One Flash Purification system (Biotage). Fractions bearing product (confirmed by UPLC-MS sampling of fraction tubes) were pooled and dried by rotary evaporation. The product was then resuspended in a minimal quantity of water, transferred to a pre-weighed 20 mL vial, frozen, and lyophilized.

[2] = tested on: DsaD/E complex; test: Analytical-scale Cα/Cβ H/D exchange with purified DsaD and DsaE; assay type: biochemical, Streptomyces scopuliridis; conditions: 10 mM substrate, 5 μM DsaD, 50 μM DsaE (10:1), 37° C., 8 h
Description: FIGS. 3A-3C. Optimization of H/D exchange reactions and evaluation of the substrate scope. FIG. 3A. Optimization of Cβ-deuteration by increasing equivalents of partner protein DsaE. FIG. 3B. Evaluation of substrate scope of dual-protein-catalyzed Cα/Cβ deuteration under optimized conditions. FIG. 3C. UV-visible spectroscopy used to evaluate non-native substrate binding to DsaD. Reaction conditions: 10 mM amino acid substrate, 50 μM DsaE, 5 μM DsaD (10:1), 50 mM sodium phosphate (pD 8.4), 0.1 mM PLP, D2O, 37° C., 8 h. Reactions performed in duplicate, and percentage isotope incorporation is reported as the average of the replicates.
General procedure analytical scale deuteration reactions: α/β deuteration reactions were performed as follows. A 1 mL Eppendorf tube was charged with amino acid (10-20 mM final concentration), Na3PO4 buffer pD 8.4 (50 mM final concentration), PLP (100 μM final concentration), purified enzymes or appropriate lysate and D2O and to the appropriate final volume (typically 50 μL). Reactions were carried out at 37° C. for 8 h and quenched by the addition of 3 volumes of acetonitrile. Precipitated biomolecules were pelleted by centrifugation (16,000×g, 10 min) and samples were processed as described below.
(§2) Marfey's derivatization of analytical scale reactions: Derivatization of the resulting analytical scale product mixture (to increase overall signal and enable reverse phase chromatographic analysis) was achieved by treatment with Marfey's reagent^2 (1-fluoro-2-4-dinitrophenyl-5-L-alanine amide, L-FDAA) using the following protocol. 25 μL of quenched reaction mix (final amine concentration, 1.6 mM) was added to an Eppendorf tube with 50 μL of 15 mM NaHCO3 (final concentration, 5 mM) and 75 μL of 5 mM L-FDAA (final concentration, 2.5 mM). Derivatization reactions were carried out for 10-12 h before quenching with 150 μL of 60 mM HCl dissolved in acetonitrile. Final reaction analysis was carried out by UPLC-DAD-MS and quantitation as described below.
(§3) Quantitation of deuteration in analytical scale reactions: Deuteration reactions were analyzed by UPLC-DAD-MS with single ion recording (SIR) channels set to record a spectrum with the appropriate isotopic mass in positive mode. The area under the curve of recorded SIR peaks was obtained and normalized to account for natural isotopic abundance distributions (e.g. ^13C, ^15N, ^2H, ^34S, etc). Percent deuterium incorporation was calculated by the formula below. These measurements were carried out in an iterative fashion to measure Cα deuteration and Cβ deuteration.

[3] = target: DsaD (Streptomyces scopuliridis, UniProt A0A0D5CCB2); test: UV-vis spectroscopy of amino acid binding to DsaD; conditions: 20 μM DsaD, pH 8.0, 25° C.
Description: UV-Vis Spectroscopy: Data were collected between 600 and 300 nm on a UV-2600 Shimadzu spectrophotometer (Shimadzu, Kyoto, Japan) with a semi-micro quartz cuvette (Starna Cells, Atascadero, California, USA) at 25° C. DsaD stock solutions were diluted to 20 μM in 50 mM sodium phosphate pH 8.0. For observation of substrate binding, amino acids were added at concentrations ranging from 2.5-10 mM. Spectra from 600-300 nm were collected after a 2-minute incubation period. Amino acid stocks were prepared as 100 mM stocks in deionized water.

[4] = tested on: DsaD/E system; test: Two-step Cα/Cβ deuteration then Cα deuterium washout with DsaD in H2O; assay type: biochemical, Streptomyces scopuliridis; conditions: after Cα washout with DsaD in water
Description: as §1
An initial reaction was performed with DsaD and DsaE to produce Cα,Cβ-deuterated L-Leu-2,3,3-d3 (25). Following reaction quenching with acetone, centrifugation to remove protein products, and removal of acetone and D2O via rotary evaporation, the dry crude product mixture was subjected to standard reaction conditions with DsaD in water. This reaction led to washout of the Cα deuterium, providing exclusively Cβ-deuterated L-Leu-3,3-d2 (44) with high levels of deuterium incorporation at Cβ (FIG. 5, 86% D incorporation and 98% ee). The site of H/D exchange in these reactions is dictated by the presence or absence of DsaE from the reaction conditions, enabling control of amino acid deuteration patterns.
We performed Cα/Cβ deuteration on a panel of amino acids, quenched the reactions and resubjected the crude product to Cα deuterium washout with DsaD in H2O. […]

[5] = target: DsaD/DsaE complex (Streptomyces scopuliridis, UniProt A0A0D5CCB2); test: Steady-state kinetic analysis of H/D exchange of L-Ile by DsaD with partner protein DsaE; assay type: biochemical
Chain of DsaD/DsaE complex (A0A0D5CBB6 entry or part of it, one chain of several): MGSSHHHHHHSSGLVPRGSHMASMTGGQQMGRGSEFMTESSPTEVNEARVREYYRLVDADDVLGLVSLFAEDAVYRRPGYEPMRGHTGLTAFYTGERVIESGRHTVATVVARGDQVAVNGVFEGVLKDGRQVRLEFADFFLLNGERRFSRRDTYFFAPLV
Description: (§4) FIGS. 2A-2E. Steady-state kinetic analysis of H/D exchange by the Ile epimerization system. FIG. 2A. Steady-state kinetic analysis describing Cβ-deuteration^a of L-Ile under varied equivalents of partner enzyme DsaE. FIG. 2B. Steady-state kinetic analysis of Cβ-deuteration rates^a at a constant 1 mM L-Ile, measured against increasing equivalents of DsaE. FIG. 2C. Steady-state kinetic analysis of Cα-deuteration^a of L-Ile in the presence and absence of partner protein DsaE. FIG. 2D. Proposed mechanism of selective deuterium incorporation at Cα and Cβ catalyzed by dual protein catalysis. FIG. 2E. UV-visible spectrum of DsaD in the absence and presence of L-Ile.^a Measurement of initial rates was performed in duplicate at 24° C. Conditions: 0.1-10 mM L-Ile, 3 μM DsaD, 50 mM sodium phosphate (pD 8.4), and 0.1 mM PLP in D2O (99.9%). Proteins were exchanged into a 50 mM sodium phosphate-D2O (pD 8.4) solution prior to reaction initiation to minimize proton contamination (<1% H2O). Following quench with MeCN, crude reaction products were subjected to functionalization with Marfey's reagent (L-FDAA) to enable analysis by reverse-phase chromatography and quantification of isotope incorporation by mass spectrometry.
as §2, §3
Kinetic analysis of biocatalytic L-Ile deuteration: Initial rates of α- or β-deuteration were obtained by means of end-point assay using the quantitation protocol for analytical scale reactions as described above. All reagents were prepared in D2O (99.9% D) and protein stocks were dialyzed (3 exchanges over 3 h at 4° C.) into 50 mM sodium phosphate buffer dissolved in D2O (pD 8.4) using a slide-a-lyzer device with a 3,000 Da cutoff. Reactions were performed at 25° C. in 1 mL Eppendorf tubes. Michaelis constants (KM) for α- and β-deuteration of L-Ile were determined using the concentration range of 0.1-10 mM L-Ile using 3 μM DsaD. Partner protein (DsaE) concentrations were consistent within each experiment and separate experiments were performed using varied equivalents of partner protein (0-50 equiv). Initial velocities were measures in duplicate or triplicate for at least 6 different substrate concentrations for each set of conditions tested. Measurements of the impact of partner protein (DsaE) concentration on the initial rate of β-deuteration were carried out using 1 mM L-Ile, 3 μM DsaD and varying DsaE concentrations between 3 μM-600 μM (1-200 equiv). Under the minimal proton contamination conditions of this assay (99.9% D2O), Cα and Cβ deuteration are assumed to have occurred without back transfer to proton. The data were fit using the Michaelis-Menten equation implemented in Prism.

[6] = substrate: CC[C@H](C)[C@H](N)C(=O)O; test: as above; assay type: biochemical, Streptomyces scopuliridis; conditions: pH 8.4
Description: as §4, §2
as §3, with “These measurements were carried out in an iterative fashion to measure Cα deuteration and Cβ deuteration.” left out
Kinetic analysis of biocatalytic L-Ile deuteration: Initial rates of α- or β-deuteration were obtained by means of end-point assay using the quantitation protocol for analytical scale reactions as described above. […] Michaelis constants (KM) for α- and β-deuteration of L-Ile were determined using the concentration range of 0.1-10 mM L-Ile using 3 μM DsaD. […]

[7] = DsaD and DsaE clarified lysates, D2O, 5% 1H-water
[8] = lower substrate loading (10 mM)

With `[2H]C([2H])(C(C)C)[C@]([2H])(N)C(=O)O` [L-Leu-2,3,3-d3] the “deuterium incorporation at Cα” value [1, 7] was 95% and the “deuterium incorporation at Cβ” value [1, 7] was 86%.

In the case of `CO[C@H](C)[C@H](N)C(=O)O` [compound 30, L-(OMe)-Thr], the “D-incorporation at Cα” value [2] is reported as “high levels of deuteration”, the “D-incorporation at Cβ” value [2] is reported as “moderate deuterium incorporation and scrambling of configuration” and the “substrate binding to DsaD by UV-vis” value [3] is reported as “enables productive binding”.

`CSC[C@H](N)C(=O)O` [S-Me-Cys, S-methylcysteine] was tested, and the “D-incorporation at Cα” value [2] was “high levels of exchange” and the “D-incorporation at Cβ” value [2] was “moderate levels of D-incorporation”.

In the case of `[2H]C([2H])(c1ccccc1)[C@]([2H])(N)C(=O)O` [L-Phe-2,3,3-d3], the “deuterium incorporation at Cα” value [1, 8] is reported as 95% and the “deuterium incorporation at Cβ” value [1, 8] is reported as 85%.

For `N[C@@H](Cc1c[nH]c2ccccc12)C(=O)O` [Trp, tryptophan], the “D-incorporation at Cα” value [2] was “underwent Cα-deuteration” and the “D-incorporation at Cβ” value [2] was “no Cβ-deuteration”.

For `C[C@@H](O)[C@H](N)C(=O)O` [Thr, threonine], the “Cα and Cβ D-incorporation” value [2] was “did not undergo any deuteration” and the “substrate binding to DsaD by UV-vis” value [3] was “no binding was observed”.

With `CC[C@H](C)[C@H](N)C(=O)OC` [methyl ester of Ile] the “Cα and Cβ D-incorporation” value [2] was “Neither of these substrates underwent deuteration”.

With `[2H]C([2H])(C(C)C)[C@H](N)C(=O)O` [L-Leu-3,3-d2] the “D incorporation at Cβ” value [4] was 86%.

With `COc1ccc(C[C@H](N)C(=O)O)cc1` [compound 34, (OMe)-L-Tyr] the “D-incorporation at Cα” value [2] was 99% and the “D-incorporation at Cβ” value [2] was 74%.

`N[C@@H](CO)C(=O)O` [Ser] was tested, and the “Cα and Cβ D-incorporation” value [2] was “did not undergo any deuteration”.

`CC(C)CCN` [isopentylamine] was tested, and the “Cα and Cβ D-incorporation” value [2] was “Neither of these substrates underwent deuteration”.

`CSCC[C@H](N)C(=O)O` [Met, methionine] was tested, and the “D-incorporation at Cα” value [2] was “high levels of exchange” and the “D-incorporation at Cβ” value [2] was “moderate levels of D-incorporation”.

B1: DsaE: small partner protein of aminotransferase DsaD, SEQ ID NO: 3, Streptomyces scopuliridis (protein, listed as Streptomyces scopuliridis)
chain: MTESSPTEVNEARVREYYRLVDADDVLGLVSLFAEDAVYRRPGYEPMRGHTGLTAFYTGERVIESGRHTVATVVARGDQVAVNGVFEGVLKDGRQVRLEFADFFLLNGERRFSRRDTYFFAPLV
modifications: DsaE
B1 was tested, and the Km ([5]; 1 mM L-Ile, 3 μM DsaD, initial rate of Cβ-deuteration vs DsaE, read-out: KM for the formation of the active DsaD/DsaE complex) was 40 ± 5 µM, the “DsaE concentration at plateau of Cβ-deuteration rate” value ([5]; 1 mM L-Ile, 3 μM DsaD, 100:1 ratio) was “around 0.3 mM” and the “KM for association of DsaD and DsaE” value ([5]; as restated in conclusions) was 40 µM.

B2: DsaD/DsaE complex (Streptomyces scopuliridis) (protein)
chain: MGSSHHHHHHSSGLVPRGSHMASMTGGQQMGRGSEFMHIVTTPVARPLTAQERTERCAAPAFGTAFTEHMVSARWNPEQGWHDAELVPYGPLLLDPATVGLHYGQVVFEGLKAFRSHTGEVAVFRPDAHAERMRASARRLMMPEPPEELFLAAVDALVAQDQEWIPDDPGMSLYLRPILFASERTLALRPAREYRFLLVAFITEGYFGPAQRPVRVWVTDEYSRAAAGGTGAAKCAGNYAGSLLAQEEAQRKGCDQVVWLDPVERNWVEEMGGMNLFFVYEAGGSARLVTPPLTGSLLPGVTRDALLRLAPTLGVPVSEAPLSLEQWRADCASGAITEVFACGTAARISPVNEVSTKDGSWTIGAGAPAEGGVAAGEVTGRLSAALFGIQRGELPDSHSWMRPVSPARQSAIT
Molecule B2 has a Km ([6]; other: 5 equiv. of DsaE (5:1 DsaE:DsaD)) of 200 ± 10 µM, a Km ([6]; other: 50 equiv. of DsaE (50:1 DsaE:DsaD)) of 300 ± 90 µM and a Km ([6]; other: one equivalent of DsaE, 3 μM DsaD) of 2400 ± 680 µM. The Km ([6]; other: with DsaE bound) was 120 ± 20 µM.
